Measurements from patent publication US12358954B2, “Capsid-modified rAAV vector compositions and methods therefor” (priority 2012, dated 2025).

Experiments:
[1] = tested on: pro-inflammatory cytokines and chemokines; experiment: Gene-expression analysis of innate immune response in liver by RT-PCR; assay type: in vivo, C57BL/6J mice
Method: Recombinant AAV Vector Transduction Studies in Vivo. Groups of 6-weeks old normal C57BL/6J mice (Jackson Laboratories, Bar Harbor, Me., USA) were administered intra-peritoneally, with a single dose (20 mg/kg) of NF-κB inhibitor Bay11, in a 200-μL volume diluted in DMSO (day 0). Animals injected with only the DMSO carrier solvent were considered as baseline (mock) group (n=75) and animals injected with Bay11 were the test group (n=75). At this point, the animals from mock and Bay11 groups were randomized to receive either phosphate buffered saline (PBS, pH 7.4) or WT-AAV or TM-AAV vectors (n=25 mice each group). On day 1, ˜1×10^11 viral genome (vg) particles of WT-AAV2-EGFP or TM-AAV2-EGFP vectors or PBS were administered intravenously via the tail vein. To measure the modulation of immune response to AAV, 5 animals each from PBS-, WT-AAV-, or TM-AAV vector-injected groups were sacrificed by carbon-dioxide inhalation at different time points post-vector administration (2, 6, 10, 24 hrs and day 10). Hepatic lobes were collected, cross-sectioned and mounted on slides to study the effect of Bay11 on AAV-mediated EGFP expression (from day 10 mice). […]
Gene-Expression Analysis of Innate Immune Response by RT-PCR Assay. […] Data were captured and analyzed using an ABI Prism 7500 Sequence Detection System with v1.1 Software (Applied Biosystems). The baseline was determined automatically for the 18S rRNA and for other genes. Thresholds were determined manually for all genes. Gene expression was measured by the comparative threshold cycle (Ct) method. The parameter threshold cycle (Ct) was defined as the cycle number at which the reporter fluorescence generated by the cleavage of the probe passed a fixed threshold above baseline. […] Relative gene expression was determined for each group of treated and untreated animals and values >2.6 and <0.38 were considered as significant up-regulations and down-regulations between the groups and was calculated by assessing the variability in the 96 well plates used to measure specific gene expression.

[2] = tested on: primary human dendritic cells; experiment: FACS analyses of markers of maturation (CD83, CD86) of primary human dendritic cells; assay type: cell-based
Method: Cells, Antibodies and Chemicals. HeLa cells were obtained from the American Type Culture Collection (Rockville, Md., USA) and maintained as monolayer cultures in Iscove's-modified Dulbecco's medium (IMDM, Invitrogen, Inc., Carlsbad, Calif., USA) supplemented with 10% newborn calf serum (NCS) (Lonza, Inc., Basel, SWITZERLAND) and antibiotics. Leukapheresis-derived PBMCs were resuspended in serum-free AIM-V medium (Lonza, Inc.) and semi-adherent cell fractions were incubated in serum-free AIM-V medium supplemented with recombinant human IL-4 (500 U/mL) and GM-CSF (800 U/mL) (R&D Systems, MN, USA). Cells were treated with NF-κB modulators ([…]), and cytokines cocktail including 10 ng/mL TNF-α, 10 ng/mL IL-1, 10 ng/mL IL-6, […] (R&D Systems) for 20 hr. Cells were harvested, characterized to ensure they met the typical phenotype of mature DCs (CD83, RPE, murine IgG1, CD86, FITC, murine IgG1; Invitrogen, Inc.). All primary and secondary antibodies were purchased from Cell Signaling Technology, Inc. (Danvers, Mass., USA) or Santa Cruz Biotechnology, Inc (Santa Cruz, Calif., USA). NF-kB activators [Etoposide (VP16), Aphidicolin, Hydroxyurea (HU)] and NF-kB inhibitors [Bay11-7082 (Bay11), Pyrrolidine dithiocarbamate (PDTC)] were purchased from Sigma-Aldrich Co. (St. Louis, Mo., USA). These compounds were re-suspended in either DMSO (Sigma-Aldrich Co.) or in sterile, DNAase-, RNAase-free water (Invitrogen, Inc.) as per the manufacturer's instructions.

[3] = tested on: anti-AAV2 IgG2a; experiment: Anti-AAV2 IgG2a levels in peripheral blood; assay type: in vivo, mice; details: day 10
Method: Anti-AAV2 IgG2a levels were determined in peripheral blood from mice at day 10 following injections with scAAV vectors, with and without prior administration of Bay11 (n=4 each);
Inhibition of NF-κB Activation Leads to Suppression of Pro-Inflammatory Cytokine Production Prior to AAV Vector-Mediated Gene Transfer in Mice in Vivo. In in vivo studies, a single dose of Bay11 at 20 mg/kg body weight was administered intra-peritoneally (i.p.) 12 hrs prior to vector administration in C57BL/6 mice. Transcript levels from liver homogenates of innate immune mediators (FIG. 3A) or for activation of NF-κB (FIG. 3B) genes were measured from Bay11- and vector-injected groups and compared with sham-injected mice. […] The up-regulation of type I interferon expression by both wild-type (WT-AAV) and TM-AAV vectors was unaffected by Bay11 (FIG. 8A, FIG. 8B, FIG. 8C, FIG. 8D, FIG. 8E, and FIG. 8F).

[4] = Mature DCs + AAV + Cytokines + modulator

SMILES: Cc1ccc(S(=O)(=O)/C=C/C#N)cc1 [Bay11, Bay11-7082]
- levels of pro-inflammatory cytokines or chemokines (IL-1α, IL-6, TNFα, IL-12α, KC, RANTES) in liver ([1]; Bay11 20 mg/kg i.p. 12 hrs prior to vector, 2 hrs post-vector): significantly reduced
- decrease in AAV vector-induced production of pro-inflammatory cytokines and chemokines ([1]; Bay11 prior to gene transfer, C57BL/6 mice): up to 7 fold
- up-regulation of type I interferon expression by WT-AAV and TM-AAV vectors ([1]; mouse, in vivo): unaffected
- maturation of DCs (CD83, CD86) [2]: inhibition of cytokine-mediated maturation
- Geometric means of levels of expression in cells expressing CD83 [2, 4]: 16.88
- Geometric means of levels of expression in cells expressing CD86 [2, 4]: 10.11
- anti-AAV2 antibody response [3]: significantly reduced
